Test results published in PubChem BioAssay (NCI).
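96-well plates; 48 h exposure; 5 concentrations. Endpoints by linear interpolation between flanking doses. Not reached: highest tested concentration assigned. TGI marks complete inhibition of growth.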

Tests used:
Assay in all cases: NCI anticancer screen, dose series, 48 h
SK-MEL-5 melanoma = tested on: SK-MEL-5 melanoma
HCT-116 colon = tested on: HCT-116 colon
NCI-H23 lung = tested on: NCI-H23 lung
SK-MEL-2 melanoma = tested on: SK-MEL-2 melanoma
HS 578T breast = tested on: HS 578T breast
U251 CNS = tested on: U251 CNS
HCT-15 colon = tested on: HCT-15 colon
SW-620 colon = tested on: SW-620 colon
HT29 colon = tested on: HT29 colon
MALME-3M melanoma = tested on: MALME-3M melanoma
M14 melanoma = tested on: M14 melanoma
MDA-MB-231 breast = tested on: MDA-MB-231 breast
IGROV1 ovarian = tested on: IGROV1 ovarian
CAKI-1 renal = tested on: CAKI-1 renal
HCC-2998 colon = tested on: HCC-2998 colon
RXF 393 renal = tested on: RXF 393 renal
786-0 renal = tested on: 786-0 renal
PC-3 prostate = tested on: PC-3 prostate
OVCAR-4 ovarian = tested on: OVCAR-4 ovarian
A498 renal = tested on: A498 renal
HL-60(TB) leukemia = tested on: HL-60(TB) leukemia
SN12C renal = tested on: SN12C renal
RPMI-8226 leukemia = tested on: RPMI-8226 leukemia
OVCAR-8 ovarian = tested on: OVCAR-8 ovarian
MOLT-4 leukemia = tested on: MOLT-4 leukemia
A549 NSCLC = tested on: A549 NSCLC
TK-10 renal = tested on: TK-10 renal
MDA-MB-435 = tested on: MDA-MB-435
K-562 leukemia = tested on: K-562 leukemia
T-47D breast = tested on: T-47D breast
OVCAR-5 ovarian = tested on: OVCAR-5 ovarian
OVCAR-3 ovarian = tested on: OVCAR-3 ovarian
SNB-75 CNS = tested on: SNB-75 CNS
NCI-H522 lung = tested on: NCI-H522 lung
BT-549 breast = tested on: BT-549 breast
SF-268 CNS = tested on: SF-268 CNS
SF-539 CNS = tested on: SF-539 CNS
ACHN renal = tested on: ACHN renal
COLO 205 colon = tested on: COLO 205 colon
SR leukemia = tested on: SR leukemia
HOP-62 NSCLC = tested on: HOP-62 NSCLC
SK-MEL-28 melanoma = tested on: SK-MEL-28 melanoma
SK-OV-3 ovarian = tested on: SK-OV-3 ovarian
DU-145 prostate = tested on: DU-145 prostate
LOX IMVI melanoma = tested on: LOX IMVI melanoma
MDA-N = tested on: MDA-N
UO-31 renal = tested on: UO-31 renal
KM12 colon = tested on: KM12 colon
EKVX NSCLC = tested on: EKVX NSCLC
NCI/ADR-RES ovarian = tested on: NCI/ADR-RES ovarian
NCI-H460 lung = tested on: NCI-H460 lung
UACC-62 melanoma = tested on: UACC-62 melanoma
NCI-H226 lung = tested on: NCI-H226 lung
SF-295 CNS = tested on: SF-295 CNS
UACC-257 melanoma = tested on: UACC-257 melanoma
SNB-19 CNS = tested on: SNB-19 CNS
HOP-92 NSCLC = tested on: HOP-92 NSCLC
MCF7 breast = tested on: MCF7 breast
CCRF-CEM leukemia = tested on: CCRF-CEM leukemia

Measured: TGI

Cc1ccccc1OC(C)C(=O)NN1C(=O)CC(=O)NC1=S (stereo not given)
not listed: CCRF-CEM leukemia
> 100 µM: all other assays above

N#Cc1c(N)c2c(c(-c3ccccc3)c1-c1ccccc1)C(=O)N(N)C2=O
not listed: A498 renal | HOP-62 NSCLC | LOX IMVI melanoma
> 100 µM: all other assays above

O=[N+]([O-])c1ccc2c(c1)c1nn2CCCCOc2nn(c3ccc([N+](=O)[O-])cc23)CCCCO1
not listed: SK-MEL-5 melanoma | SW-620 colon | HT29 colon | A549 NSCLC | TK-10 renal | KM12 colon | UACC-62 melanoma | CCRF-CEM leukemia
> 100 µM: all other assays above
